Assay results as given in patent US20210382054A1, “METHODS FOR SCREENING UBIQUITIN LIGASE AGONISTS” (University of Washington, priority 2018, published 2021).

What follows are substances tested against T1, KEAP1-ssDNA12 and KRAS^G12D-ssDNA18 (Homo sapiens, UniProt P01116+Q14145, G12D) (assay: APTLAB (adjustable platform for tracking low affinity binding) detected by Octet BLI). Details: ssDNA bridge oligonucleotide alone, no compound (FIG. 8B).
T1 construct: full length human KRAS4B (UniProtKB-P01116-2) with a site mutation G12D; His-tag (N, cleaved yes); His-tag (N); made in house; host or cells: E. coli BL21 (DE3)
Text: While TR-FRET can be used as an informative second screen for hit validation, its principle is similar to AlphaScreen and relies on beads-based and proximity-induced signals. The hit compounds were further validated with additional methods that are distinct from AlphaScreen and TR-FRET methods. […] In other words, even though these compounds might be able to promote KRAS-KEAP1 interaction, the resulting ternary complex might be too unstable to be detected by the conventional methods. To overcome this problem, a new assay was designed (designated herein as APTLAB, adjustable platform for tracking low affinity binding) (FIG. 5), in which weak interactions between complementary DNA strands with variable length was used to enhance the compound-induced low affinity binding between KRAS and KEAP1 and render it detectable by conventional methods.
To couple adjustable DNA oligonucleotide interactions with low affinity protein-protein interaction, a protein fold, HUH, which is able to react with a specific single-stranded DNA (ssDNA) oligonucleotide and form a covalently linked protein-DNA conjugate (Lovendahl, K. N., Hayward, A. N. & Gordon, W. R. Sequence-Directed Covalent Protein-DNA Linkages in a Single Step Using HUH-Tags. J Am Chem Soc 139, 7030-7035, doi:10.1021/jacs.7b02572 (2017)), was utilized. HUH protein was fused to the C-terminus of KEAP1 and KRAS^G12D individually so that the two chimeric proteins can each form a covalent link with an ssDNA containing the HUH-reactive sequence (FIGS. 5 and 6). The purified HUH fusion proteins were adjusted to 100 μM in a buffer containing 20 mM HEPES (pH 7.5), 50 mM NaCl, 0.5 mM TCEP, 1 mM MgCl2 and 1 mM MnCl2. The ssDNA oligonulceotides were added to a final concentration of 120 μM. […]
ssDNA bridge oligonucleotides were synthesized with different lengths with 33, 28 and 23 nucleotides (nt) (FIG. 8A) and tested their ability to promote complex formation between the two ssDNA-protein conjugates as monitored by BLI. […]

Substance	complex formation between KEAP1-ssDNA12 and KRAS^G12D-ssDNA18, BLI binding signal
ssDNA-bridge28nt: ssDNA bridge oligonucleotide, 28 nucleotides, 5′-GTTGTTGTTGTTTTGTATGGTGTGTGGT-3′; inflection point bridge (chemistry not fully specified)	significantly lower
ssDNA-bridge33nt: ssDNA bridge oligonucleotide, 33 nucleotides, 5′-GTTGTTGTTGTTGTTTTGTATGGTGTGTGGTGG-3′ (chemistry not fully specified)	high BLI signal
ssDNA-bridge23nt: ssDNA bridge oligonucleotide, 23 nucleotides, 5′-GTTGTTGTTTTGTATGGTGTGTG-3′ (chemistry not fully specified)	too weak to detect
